The record followed here is publication PMC5057115, “Cathelicidins in the Tasmanian devil (Sarcophilus harrisii)” (Scientific Reports, 2016).

The test system of data set [1] is 25 bacterial and 6 fungal strains. The format is cell-based. The conditions noted are these: against the bacteria and fungi tested (25 bacterial and 6 fungal strains of Table 2), broth microdilution (CLSI). An excerpt: To assess the antimicrobial activity of devil cathelicidins, we tested synthesized mature peptides on 25 bacterial and 6 fungal strains (Table 2). As there were no Tasmanian devil specific isolates available, human and veterinary strains were used. The antimicrobial activity of Tasmanian devil cathelicidin mature peptides Saha-CATH1 to 6 against bacteria and fungi is summarised in Table 2. […] As such, these values are not included in Table 2. Saha-CATH3 had highly specific activity, as it was unable to kill any bacteria, but killed Cryptococcus neoformans. […]
Tissue expression of devil cathelicidin prepropeptides was determined by real-time PCR on a range of secretory, immune, reproductive, gastrointestinal and respiratory tissues, as well as BLAST searches of the milk transcriptome. […] The mature peptides of all six devil cathelicidins were synthesised by ChinaPeptides Co. Ltd. and their antimicrobial activity against bacterial and fungal pathogens determined by broth microdilution susceptibility assay according to clinical laboratory standards institute guidelines. Antimicrobial activity was expressed as minimum inhibitory concentration (MIC). Cytotoxicity was assessed in the human cell line A549 and haemolytic activity determined against human blood. Statistical significance of peptide effect on cell survival in comparison to the untreated control was calculated using a one sample t-test. […]
A general note: Broth dilution looks for growth in wells or tubes with falling amounts of substance.

The next data set relates to human red blood cells. The format is cell-based. The conditions noted are these: red cells of human, 24 h. As to the method:
Tissue expression of devil cathelicidin prepropeptides was determined by real-time PCR on a range of secretory, immune, reproductive, gastrointestinal and respiratory tissues, as well as BLAST searches of the milk transcriptome. Opportunistic tissue samples for real-time PCR were collected from Taronga Zoo (Sydney) from devils which were subject to euthanasia due to old age and advanced disease. […] Ltd. and their antimicrobial activity against bacterial and fungal pathogens determined by broth microdilution susceptibility assay according to clinical laboratory standards institute guidelines. Antimicrobial activity was expressed as minimum inhibitory concentration (MIC). Cytotoxicity was assessed in the human cell line A549 and haemolytic activity determined against human blood. Statistical significance of peptide effect on cell survival in comparison to the untreated control was calculated using a one sample t-test. Pouch microbiome analysis was performed on swabs from the pouch of lactating and non-lactating devils to detect changes in microbe populations. Pouch swab collection was carried out in accordance with the Save the Tasmanian Devil Program and was approved by the Animal Ethics Committee of the University of Sydney (permit number 681). page 3: […] Two antibiotics, ampicillin and tetracycline, were included as a positive control for bacteria, and the […] A well containing cells and media only was used as a “no drug” control to ensure that cultures grew normally. Bacteria were subcultured on Mueller Hinton agar (MHA) or Sheep blood agar (BA) for 24 hours at 35 °C for Staphylococcus spp., Pseudomonas spp., Enterococcus spp. and E.coli, with 5% CO2 for Streptococcus spp., K.pneumoniae, P.multocida, […] Similarly, fungi were subcultured on Sabouraud agar (SAB) at 35 °C for 24 hours prior to the test. Colonies were resuspended in saline and the OD530 measured with a McFarland reader. If necessary the suspension was diluted to 0.45-0.55 McFarland units with saline. […] Assays Antimicrobial activity was expressed as minimum inhibitory concentration (MIC), which was defined as the lowest concentration of cathelicidin preventing visible growth, relative to the negative control. Colonies which grew on agar plates were also counted. Cytotoxicity Cytotoxicity was assessed in the human A549 cell line maintained in Dulbecco’s Modification of Eagle’s Medium (DMEM) supplemented with 10% foetal bovine serum (FBS), 2mM L -glutamine, 50units/mL penicillin and 50μg/mL streptomycin. […] Following incubation for a further 24 hours, cell viability was determined using alamar blue (Invitrogen) which was added to each well. […]

Data set [2] concerns C. parapsilosis ATCC 22019. The data set can be described thus: microbe, parasite or virus in culture. The format is cell-based. The conditions noted are these: Lodderomyces parapsilosis, ATCC22019; broth microdilution (CLSI), YNB, 64 to 0.125 μg/mL, 48 hours at 35 °C; ATCC strain; read-out: MIC. How it is done:
(§1) Tissue expression of devil cathelicidin prepropeptides was determined by real-time PCR on a range of secretory, immune, reproductive, gastrointestinal and respiratory tissues, as well as BLAST searches of the milk transcriptome. Opportunistic tissue samples for real-time PCR were collected from Taronga Zoo (Sydney) from devils which were subject to euthanasia due to old age and advanced disease. The mature peptides of all six devil cathelicidins were synthesised by ChinaPeptides Co. Ltd. and their antimicrobial activity against bacterial and fungal pathogens determined by broth microdilution susceptibility assay according to clinical laboratory standards institute guidelines. Antimicrobial activity was expressed as minimum inhibitory concentration (MIC). Cytotoxicity was assessed in the human cell line A549 and haemolytic activity determined against human blood. Statistical significance of peptide effect on cell survival in comparison to the untreated control was calculated using a one sample t-test. Pouch microbiome analysis was performed on swabs from the pouch of lactating and non-lactating devils to detect changes in microbe populations. Pouch swab collection was carried out in accordance with the Save the Tasmanian Devil Program and was approved by the Animal Ethics Committee of the University of Sydney (permit number 681). […]
(§2) base (YNB) for fungi, from a concentration of 64μg/mL to 0.125μg/mL in a final volume of 100 μL .
(§3) Two antibiotics, ampicillin and tetracycline, were included as a positive control for bacteria, and the antifungal drug fluconazole for fungi. A well containing cells and media only was used as a “no drug” control to ensure that cultures grew normally. Bacteria were subcultured on Mueller Hinton agar (MHA) or Sheep blood agar (BA) for 24 hours at 35 °C for Staphylococcus spp., Pseudomonas spp., Enterococcus spp. and E.coli, with 5% CO2 for Streptococcus spp., K.pneumoniae, P.multocida, L.monocytogenes and N.asteroides. Similarly, fungi were subcultured on Sabouraud agar (SAB) at 35 °C for 24 hours prior to the test. Colonies were resuspended in saline and the OD530 measured with a McFarland reader. If necessary the suspension was diluted to 0.45-0.55 McFarland units with saline. Following a 1:150 dilution for bacteria and twostep dilution for fungi (1:50, 1:20), 100 μL of microorganisms (1x106 – 5 x10^5 cells/mL) were pipetted into wells 2-12, the first well acting as a negative control. Colony counts were performed using a 1:1000 dilution for bacteria and 1:10 for fungi spread onto MHA/BA or SAB plates respectively. The 96 well microdilution and agar plates were incubated for 24 hours at 35 °C (Escherichia coli, Staphylococcus spp., Enterococcus spp. and Pseudomonas spp.), with 5% CO2 (Streptococcus spp. Pasteurella multocida, Klebsiella pneumoniae, Listeria monocytogenes a nd Nocardia asteroids) for bacteria, and 35 °C for 48 hours (Candida spp .) or 72 hours (Cryptococcus spp.) for fungi. Assays Antimicrobial activity was expressed as minimum inhibitory concentration (MIC), which was defined as the lowest concentration of cathelicidin preventing visible growth, relative to the negative control. […]
(§4) DMEM and positive control of dimethylsulfoxide (DMSO) (1%) were also included. […]
(§5) 570nm and 620nm using the Victor 3 multilabel plate reader (PerkinElmer). The assay was performed on two separate occasions. To x i city of cathelicidins was calculated according to Invitrogen recommendations and expressed as percentage cell survival compared to the untreated growth control. A significant difference between cathelicidin treated and control cell survival was tested using a o ne sample t-test (p<0.05).
(§6) Haemolytic activity was assessed using 10mL of human blood collected into potassium -ED T A vacutainers (BD). The blood was washed three times with 30mL of calcium and magnesium -free Dulbecco’s phosphate buffered saline (DPBS) and cells were collected by centrifugation at 2000 x g […]
(§7) for 10 minutes. […]

The subject of another data set is S. aureus ATCC 29213. The data set can be described thus: microbe, parasite or virus in culture. The format is cell-based, Staphylococcus aureus. As to conditions: Staphylococcus aureus, ATCC29213; broth microdilution (CLSI), 64 to 0.125 μg/mL, 24 h at 35 °C; ATCC strain; read-out: MIC. As to the method:
as §1, §2
(§8) Two antibiotics, ampicillin and tetracycline, were included as a positive control for bacteria, and the antifungal drug fluconazole for fungi. A well containing cells and media only was used as a “no drug” control to ensure that cultures grew normally. Bacteria were subcultured on Mueller Hinton agar (MHA) or Sheep blood agar (BA) for 24 hours at 35 °C for Staphylococcus spp., Pseudomonas spp., Enterococcus spp. and E.coli, with 5% CO2 for Streptococcus spp., K.pneumoniae, P.multocida, L.monocytogenes and N.asteroides. Similarly, fungi were subcultured on Sabouraud agar (SAB) at 35 °C for 24 hours prior to the test. Colonies were resuspended in saline and the OD530 measured with a McFarland reader. If necessary the suspension was diluted to 0.45-0.55 McFarland units with saline. […] Assays Antimicrobial activity was expressed as minimum inhibitory concentration (MIC), which was defined as the lowest concentration of cathelicidin preventing visible growth, relative to the negative control. […]
(§9) 570nm and 620nm using the Victor 3 multilabel plate reader (PerkinElmer). […] To x i city of cathelicidins was calculated according to Invitrogen recommendations and expressed as percentage cell survival compared to the untreated growth control. […]
(§10) Haemolytic activity was assessed using 10mL of human blood collected into potassium -ED T A vacutainers (BD). […]

In a further data set the test system is P. aeruginosa ATCC 27853. The data set can be described thus: microbe, parasite or virus in culture. Type of data set: cell-based, Pseudomonas aeruginosa. As to conditions: Pseudomonas aeruginosa, ATCC27853; broth microdilution (CLSI), 64 to 0.125 μg/mL, 24 h at 35 °C; ATCC strain; read-out: MIC. How it is done: as §1, §2, §8, §9, §10
A further data set has as its system S. pneumoniae ATCC 49619. The data set can be described thus: microbe, parasite or virus in culture. As to conditions: Streptococcus pneumoniae, ATCC49619; broth microdilution (CLSI), 64 to 0.125 μg/mL, 24 h at 35 °C with 5% CO2; ATCC strain; read-out: MIC. Type of data set: cell-based. How it is done: as §1, §2, §3, §4, §5, §6, §7
Another data set relates to E. faecalis ATCC 29212. As to the kind of experiment: microbe, parasite or virus in culture. The format is cell-based, Enterococcus faecalis. As to conditions: Enterococcus faecalis, ATCC29212; broth microdilution (CLSI), 64 to 0.125 μg/mL, 24 h at 35 °C; ATCC strain; read-out: MIC. As to the method: as §1, §2, §8, §9, §10
For a further data set, the system named is E. coli ATCC 25922. The data set can be described thus: microbe, parasite or virus in culture. Type of data set: cell-based, Escherichia coli. The conditions noted are these: Escherichia coli, ATCC25922; broth microdilution (CLSI), 64 to 0.125 μg/mL, 24 h at 35 °C, lowest concentration preventing visible growth; ATCC strain; read-out: MIC. As to the method:
as §1, §2, §8, §9, §10

≈ marks a conversion by molar mass, not a printed value. Where a SMILES comes first, the peptide text is derived from it. Where no end group is shown, it is not given here.

On to “TFKRKNGSRKNGHRPGGYSLIALGNKKVLKAPYMESI [Saha-CATH2]”, for which, in data set [1], the “minimum inhibitory concentration (MIC)” value is recorded as “greater than 64 μg/mL”. Also, the “haemolysis compared with the positive control” value with human red blood cells is “below 7%”.

As for “KREDFLDQIIRDFRNFIYQKYRRLRDEFRKLRDILSG [Saha-CATH4]”, in data set [1], the “minimum inhibitory concentration (MIC)” value was “greater than 64 μg/mL”. Further, in the data set on human red blood cells, the “haemolysis compared with the positive control” value was “below 7%”.

With `OC(Cn1cncn1)(Cn1cncn1)c1ccc(F)cc1F` [fluconazole, reference compound], the MIC in data set [2] turned out to be 2 µg/mL (≈ 6.53 µM).

With `CC[C@H](C)[C@H](NC(=O)CN)C(=O)N[C@@H](CCCCN)C(=O)N[C@@H](Cc1c[nH]cn1)C(=O)N[C@H](C(=O)N[C@@H](CC(C)C)C(=O)N[C@@H](Cc1ccccc1)C(=O)N[C@@H](CCSC)C(=O)N[C@@H](C)C(=O)N[C@@H](CCCCN)C(=O)N[C@H](C(=O)N[C@@H](CCCCN)C(=O)N[C@@H](CC(C)C)C(=O)N1CCC[C@H]1C(=O)N[C@@H](CCCNC(=N)N)C(=O)N[C@@H](C)C(=O)N[C@H](C(=O)N[C@@H](CS)C(=O)N[C@H](C(=O)N[C@@H](C)C(=O)N[C@@H](CCC(=O)O)C(=O)N[C@H](C(=O)N[C@@H](CCCCN)C(=O)N[C@@H](CCC(=O)O)C(=O)N[C@@H](CC(N)=O)C(=O)N[C@@H](CS)C(=O)N[C@@H](CC(=O)O)C(=O)N[C@@H](CCCNC(=N)N)C(=O)N[C@@H](CCCCN)C(=O)N[C@@H](CCCCN)C(=O)O)[C@@H](C)CC)[C@@H](C)O)[C@@H](C)O)[C@@H](C)O)[C@@H](C)CC` [Saha-CATH1] (H-GIKHILFMAKTKLPRATCTAEIKENCDRKK-OH; N-terminus and C-terminus assumed), the “haemolysis compared with the positive control” value in the data set with human red blood cells is recorded as “below 7%”.

`CN(C)[C@@H]1C(O)=C(C(N)=O)C(=O)[C@@]2(O)C(O)=C3C(=O)c4c(O)cccc4[C@@](C)(O)[C@H]3C[C@@H]12` [tetracycline, reference compound]: the MIC in the data set with S. aureus ATCC 29213 came out at 0.125 µg/mL (≈ 0.281 µM); in the data set on P. aeruginosa ATCC 27853 it was 8 µg/mL (≈ 18 µM).

Take `CC1(C)S[C@@H]2[C@H](NC(=O)[C@H](N)c3ccccc3)C(=O)N2[C@H]1C(=O)O` [ampicillin, reference compound]: the results for the MIC in the data set on S. pneumoniae ATCC 49619, in the data set on E. faecalis ATCC 29212 and with E. coli ATCC 25922 were 0.125 µg/mL (≈ 0.358 µM), 1 µg/mL (≈ 2.86 µM) and 8 µg/mL (≈ 22.9 µM), respectively.
